Reference: patent publication US12036289B2, “Gadolinium bearing PCTA-based contrast agents” (BRACCO IMAGING S.P.A., priority 2018, dated 2024)
Where two headings read alike, the source gives them in different places. Marks after values point to notes of the source that are not given here.

Columns and labels:
[1] = 1.0M HCl (pH 0), 25° C.; literature value; cited from earlier work
[2] = 1.0M HCl, 25° C.; literature value; cited from earlier work
[3] = Relaxometric properties: longitudinal relaxivity r1; assay type: physicochemical
Procedure: The relaxometric properties of the PCTA-based complex compounds according to the invention have been measured at different magnetic field strengths, i.e. 0.47 and 1.41 T, at 37° C. and in different media (water and human plasma) and compared with relaxivity values measured, at the same conditions, for Gd-Complex having an analogous coordination cage.
The longitudinal water proton relaxation rate (R1=1/T1) was measured at 0.47 T with a Minispec MQ-20 spectrometer (Bruker Biospin, Germany) operating at a proton Larmor frequency of 20 MHz; MR experiments at 1.41 T were performed using a Minispec MQ-60 spectrometer (Bruker Biospin, Germany) operating at a proton Larmor frequency of 60 MHz.
All test articles were used as supplied and diluted in the selected medium (water or human plasma) by weighting the required amount of paramagnetic chelated complex to get a 5 or 10 mM starting solution.
Five different concentration samples (0.1, 0.25, 0.5, 0.75 and 1 mM) for each medium have been prepared by further dilution of the starting 5 or 10 mM solution.
Relaxivity measurements were performed at 0.47 T and 1.41 T at a preset temperature sample of 37° C., kept constant by means of a thermostatic bath connected to the sample holder of the spectrometer. The five sample solutions have been preliminary pre-heated at 37° C. in an external thermostatic bath and then left 10 minutes inside the internal bath to assure the stabilization of the temperature. Longitudinal relaxation time T1 was measured by means of a standard inversion recovery sequence, where the inversion time (TI) was varied from 10 ms to at least 5 times T1 in 15 steps. Statistical analysis (mono-exponential fitting for T1 measurement, linear fitting for the evaluation of longitudinal relaxivity) was performed by Mathematica® (Wolfram, USA). Errors on the estimated parameters were evaluated by the fitting procedure.

[4] = Acid catalyzed dissociation kinetics of Gadopiclenol (isomeric mixture) and of enantiomers pair C coupled with isoserinol in 1.0 M HCl, followed by HPLC; assay type: physicochemical; conditions: 1.0M HCl, 25° C.; fitting of area-time data
Procedure: The average half-life of the obtained conjugated compounds and of Gadopiclenol (isomeric mixture) were calculated considering the decrease of the HPLC total area over time as described in detail in Example 8. For amide derivatives obtained by reaction of RRR/SSS Gd(PCTA-tris-glutaric acid) with i) R-isoserinol; ii)S-isoserinol; and iii) racemic isoserinol the kX pseudo-first-order rate constants and half-lives (t1/2=ln 2/kX) were also calculated by fitting the area—time data pairs as carried out for RRR/SSS Gd(PCTA-tris-glutaric acid) in Example 7.
The HPLC measurements were performed with Thermo Finnigan LCQ DECA XPPlus system according to the analytical Procedure 2.
HPLC chromatogram of Gadopiclenol collected as isomeric mixture from Example 2 is characterized by the presence of 4 major peaks (identified for convenience as A′, B′, C′ and D′) having the same MS and UV-Vis spectra. However, there is only one signal in the HPLC chromatogram of the complex compounds obtained by coupling the enantiomers pair C with isoserinol, whether it is R, S isoserinol or racemic-isoserinol (FIG. 6). Since, as observed, the chirality of the isoserinol pendant has no influence on the retention time of coupled diastereoisomers, the presence of 4 signals in the HPLC chromatograms of Gadopiclenol (isomeric mixture) could be interpreted by the presence of 4 enantiomer pairs formed with the stereocenters of the of the glutaric acid residue: 1) RRR-SSS (Signal D′), 2) RSR-SRS, 3) RRS-SSR and 4) RSS-SRR.
The progress of the reactions was checked by HPLC over time, plotting the area values of the peaks of the complex as a function of time, as above discussed in Example 7 for Gd(PCTA-tris-glutaric acid) isomers.
As expected, the integral values of A′, B′, C′, and D′ decrease over time, whereas the peak of the free ligand increases. […] The half-life of complexes obtained by coupling the enantiomers pair C with R, S and racemic-isoserinol was also calculated from the half of the area values in the HPLC chromatograms.

[5] = pH 0
Procedure: In order to investigate the kinetic inertness of the racemic mixture of the Gd(PCTA-tris-glutaric acid) and, particularly, of the four enantiomer pairs thereof separated by HPLC, we investigated their dissociation reactions taking place under acidic conditions. A large excess of H^+ ([HCl]=1.0 M) was in particular exploited in order to guarantee the pseudo-first order kinetic conditions.
A solution of Gd(PCTA-tris-glutaric acid) (isomeric mixture) in 1 M HCl was prepared and was analysed over the time as explained in Example 7.
In particular, the area value for each of the A, B, C, and D peaks was assessed over the time by HPLC.
The decrease of the integral area values of signals of A, B, C, and D was thus assessed and plotted as a function of the time.
kX pseudo-first-order rate constants (where kX is =kA, kB, kC and kD respectively), characterizing the dissociation rate of the different enantiomer pairs of the Gd(PCTA-tris-glutaric acid) complex and half-lives (t1/2=ln2/kX) were then calculated by fitting the area —time data pairs, as explained in details in Example 7. The average half-life value for the isomeric mixture of Gd(PCTA-tris-glutaric acid) was also obtained, by considering the percentage composition of the mixture. […]

[6] = cited from earlier work
[7] = cited from earlier work; remark: listed apart in the source

## O=C([O-])CN1CCN(CC(=O)[O-])Cc2cccc(n2)CN(CC(=O)[O-])CC1.[Eu+3] [Eu(PCTA), europium complex of the 3,6,9,15-tetraazabicyclo[9.3.1]pentadeca-1(15),11,13-triene-3,6,9,-triacetic acid]
[1]
  k1 (s^−1) rate constant of acid catalyzed dissociation: 0.000508 s⁻¹
[2]
  kx (s^−1) rate constant of acid catalyzed dissociation: 0.000508 s⁻¹

## O=C(CCC(C(=O)[O-])N1CCN(C(CCC(=O)NCC(O)CO)C(=O)[O-])Cc2cccc(n2)CN(C(CCC(=O)NCC(O)CO)C(=O)[O-])CC1)NCC(O)CO.[Gd+3] (single isomer, unassigned) [Enantiomers pair C + S-isoserinol]
[3]
  r1 (mM^−1s^−1) H2O, 0.5T, 37° C.: 12.9 ± 0.2 mM⁻¹ s⁻¹
  r1 (mM^−1s^−1) HSA, 1.5T, 37° C.: 13.9 ± 0.2 mM⁻¹ s⁻¹
[4]
  kx (s^−1) pseudo-first-order rate constant of acid catalyzed dissociation: (4.6 ± 0.3) × 10^−6 s^−1

## O=C(CCC(C(=O)[O-])N1CCN(C(CCC(=O)NCC(O)CO)C(=O)[O-])Cc2cccc(n2)CN(C(CCC(=O)NCC(O)CO)C(=O)[O-])CC1)NCC(O)CO.[Gd+3] (single isomer, unassigned) [Enantiomers pair C + R-isoserinol]
[3]
  r1 (mM^−1s^−1) H2O, 0.5T, 37° C.: 12.9 ± 0.1 mM⁻¹ s⁻¹
  r1 (mM^−1s^−1) HSA, 1.5T, 37° C.: 14.0 ± 0.3 mM⁻¹ s⁻¹
[4]
  kx (s^−1) pseudo-first-order rate constant of acid catalyzed dissociation: (4.9 ± 0.4) × 10^−6 s^−1

## O=C([O-])CN1CCN(CC(=O)[O-])CCN(CC(=O)O)CCN(CC(=O)[O-])CC1.[Gd+3] [Dotarem, Gd-DOTA]
[1]
  k1 (s^−1) rate constant of acid catalyzed dissociation: 8e-06 s⁻¹
[2]
  kx (s^−1) rate constant of acid catalyzed dissociation: 8e-06 s⁻¹

## O=C(CCC(C(=O)[O-])N1CCN(C(CCC(=O)NCC(O)CO)C(=O)[O-])Cc2cccc(n2)CN(C(CCC(=O)NCC(O)CO)C(=O)[O-])CC1)NCC(O)CO.[Gd+3] (single isomer, unassigned) [Enantiomers pair C + racemic-isoserinol]
[3]
  r1 (mM^−1s^−1) H2O, 0.5T, 37° C.: 13.0 ± 0.1 mM⁻¹ s⁻¹
  r1 (mM^−1s^−1) HSA, 1.5T, 37° C.: 14.0 ± 0.2 mM⁻¹ s⁻¹
[4]
  kx (s^−1) pseudo-first-order rate constant of acid catalyzed dissociation: (4.5 ± 0.4) × 10^−6 s^−1

## RRR/SSS Gd(PCTA-tris-glutaric acid)
[3]
  r1 (mM^−1s^−1) H2O, 0.5T, 37° C.: 9.3 ± 0.1 mM⁻¹ s⁻¹
[3]; listed as enantiomers pair C
  r1 (mM^−1s^−1) H2O, 0.5T, 37° C.: 9.3 ± 0.1 mM⁻¹ s⁻¹
[5]
  t1/2 (hour) dissociation half-life (t1/2 = ln2/kx): 120 ± 3 h

## gadolinium chelate of 2,2′,2″-(3,6,9-triaza-1(2,6)-pyridinacyclodecaphane-3,6,9-triyl)tris(5-((2,3-dihydroxypropyl)amino)-5-oxopentanoic acid) [Gadopiclenol (isomeric mixture)]
[6]; Investigative Radiology 2019, Vol 54, (8), 475-484
  stability (log K^term): 18.7
[6]; reported in EP 2988756
  thermodynamic equilibrium constant (log K^term): 14.9
[7]; H2O, 0.5T, 37° C., value reported in EP 1931673
  r1 (mM^−1s^−1) H2O, 0.5T, 37° C.: 11* mM^−1s^−1
[7]; HSA, 1.5T, 37° C., value reported in Invest. Radiol. 2015, 50, 835-842
  r1 (mM^−1s^−1) HSA, 1.5T, 37° C.: 12.8 ± 1.3** mM^−1s^−1
[7]; in human serum (37° C., 1.41 T), Investigative Radiology 2019, Vol 54, (8), 475-484
  relaxivity: 12.8 mM⁻¹ s⁻¹
[7]; in water, at 0.5 T, 37° C., reported in EP1931673
  relaxivity: 11 mM^−1s^−1Gd^−1
